Counter-ions that a name gives are not always drawn.
Legend:
Format in all cases: in vivo
[1] = tested on: type-II diabetes model mice (db/db mice); experiment: Test Example 4: random and fasting blood glucose levels during repetitive administration, 40 days; settings: 1 mL once a day for 40 days, test samples 1 μg/mL, control sample 15 μg/ml; for changes over time in random blood glucose levels: FIG. 1; for changes over time in fasting blood glucose levels: after 15 hours of fasting, FIG. 2
Method: This test was performed in order to evaluate the hemoglobin Alc lowering action and hyperglycemia improving effect activity of compounds having the cyclolanostane skeleton.
The 9,19-cyclolanostan-3-ol and 24-methylene-9,19-cyclolanostan-3-ol produced in Preparation Example 1 mentioned above were used as test samples 1 and 2, respectively. Further, β-sitosterol (Tama Biochemical Co., Ltd.) was used as a control sample.
In this test, 6-week old male db/db mice (purchased from Clea Japan, Inc.) were used as type-II diabetes model mice. These mice were divided into groups, each consisting of 7 animals. Each sample was dissolved in DMSO, and the concentrations of 9,19-cyclolanostan-3-ol and […] were adjusted to 1 μg/mL with physiological saline to obtain test sample 1 solution and test sample 2 solution. Further, concentration of β-sitosterol was adjusted to 15 μg/ml in a similar manner to obtain a control sample solution. The final DMSO concentration was adjusted to 0.2%. […] The type-II diabetes model mice were administered with 1 mL of one of the test sample solutions, control sample solution and negative sample solution once a day everyday with a sonde for 40 consecutive days. Fasting blood glucose levels and random blood glucose levels were measured over time by using Antisense II (Bayer-Sankyo Co., Ltd.). The fasting blood glucose levels were measured after 15 hours of fasting.

[2] = tested on: type-II diabetes model mice (db/db mice); experiment: Test Example 2: hemoglobin Alc lowering action compared with a clinical antidiabetic drug, 22 days; settings: for Hemoglobin Alc levels (%) 23rd day from the administration: oral 1 mL once a day for 22 days, test samples 1 μg/mL, control sample 1 7.5 μg/mL pioglitazone hydrochloride, negative sample = 100
Method: This test was performed in order to compare the hemoglobin Alc lowering action of the compounds of the present invention with that of an antidiabetic drug used in the clinical practice.
The same test sample 1 (9,19-cyclolanostan-3-ol) and test sample 2 (24-methylene-9,19-cyclolanostan-3-ol) used in Test Example 1 were used.
As type-II diabetes model mice, 6-week old male db/db mice (purchased from Clea Japan, Inc.) were used. These mice were divided into groups, each consisting of 7 animals. Each test sample was dissolved in DMSO, and the concentration was adjusted to 1 μg/mL with physiological saline. The final DMSO concentration was adjusted to 0.2%. […] Further, as a control sample 1, ACTOS® tablets (Takeda Pharmaceutical Co., Ltd.) were ground in a mortar and dissolved in physiological saline so that the concentration of pioglitazone hydrochloride as the active ingredient should become 7.5 μg/mL. The type-II diabetes model mice were orally administered with 1 mL of each test sample solution, control sample 1 solution or negative sample solution once a day everyday with a sonde for 22 consecutive days. On the 23rd day from the start of the administration, hemoglobin Alc levels were measured by using DCA 2000 (Bayer-Sankyo Co., Ltd.).

[3] = tested on: type-II diabetes model mice (db/db mice); experiment: Test Example 1: hemoglobin Alc lowering action, repetitive administration for 45 days; settings: for Hemoglobin Alc levels (%) 43rd day from the administration: 1 mL of 1 μg/mL once a day with a sonde, negative sample = 100; for lowering effect on hemoglobin Alc levels in comparison with negative sample: 43rd day, 1 mL of 1 μg/mL once a day
Method: This test was performed in order to determine the hemoglobin Alc lowering action of a compound having the cyclolanostane skeleton.
The 9,19-cyclolanostan-3-ol and 24-methylene-9,19-cyclolanostan-3-ol produced in Preparation Example 1 mentioned above were used as test samples 1 and 2, respectively.
As type-II diabetes model mice, 6-week old male db/db mice (purchased from Clea Japan, Inc.) were used in this test. These mice were divided into groups, each consisting of 7 animals. Each test sample was dissolved in DMSO, and the concentration was adjusted to 1 μg/mL with physiological saline. The final DMSO concentration was adjusted to 0.2%. […] The type-II diabetes model mice were administered with 1 mL of either of the test sample solutions or the negative sample solution once a day everyday with a sonde for 45 consecutive days. On the 43rd day of the repetitive administration, hemoglobin Alc levels were measured by using DCA 2000 (Bayer-Sankyo Co., Ltd.).

[4] = tested on: type-II diabetes model mice (db/db mice); experiment: Test Example 3: effective concentration of 24-methylene-9,19-cyclolanostan-3-ol for hemoglobin Alc lowering, 40 days; settings: for Hemoglobin Alc levels (%) 41st day from the administration: negative sample = 100; for lowering effect for the hemoglobin Alc levels in comparison with negative sample: 41st day
Method: The 24-methylene-9,19-cyclolanostan-3-ol produced in Preparation Example 1 mentioned above was used as a test sample 3.
In this test, 6-week old male db/db mice (purchased from Clea Japan, Inc.) were used as type-II diabetes model mice. These mice were divided into groups, each consisting of 7 animals. The test sample 3 was dissolved in DMSO, and the concentration of 24-methylene-9,19-cyclolanostan-3-ol was adjusted to 0.1 or 1 μg/ml with physiological saline. The final DMSO concentration was adjusted to 0.2%. […] The type-II diabetes model mice were administered with 1 mL of the test sample 3 solution of either concentration or negative sample solution once a day everyday with a sonde for 40 consecutive days. On the 41st day from the start of the repetitive administration, hemoglobin Alc levels were measured by using DCA 2000 (Bayer-Sankyo Co., Ltd.).

Row | Compound | changes over time in random blood glucose levels [1] | changes over time in fasting blood glucose levels [1] | Hemoglobin Alc levels (%) 23rd day from the administration [2] [%] | Hemoglobin Alc levels (%) 43rd day from the administration [3] [%] | lowering effect on hemoglobin Alc levels in comparison with negative sample [3] [%] | decreases in hemoglobin Alc levels in comparison with negative sample ([2]; 23rd day from the start of the administration) | Hemoglobin Alc levels (%) 41st day from the administration ([4]; 0.1 μg (1 mL of 0.1 μg/ml once a day, 40 days)) [%] | Hemoglobin Alc levels (%) 41st day from the administration ([4]; 1 μg (1 mL of 1 μg/ml once a day, 40 days)) [%] | lowering effect for the hemoglobin Alc levels in comparison with negative sample ([4]; dose of 0.1 μg/day) | lowering effect for the hemoglobin Alc levels in comparison with negative sample ([4]; dose of 1 μg/day) [%]
1 | CC(C)CCCC(C)C1CCC2(C)C3CCC4C(C)(C)C(O)CCC45CC35CCC12C (stereo not drawn) [Test sample 1, 9,19-cyclolanostan-3-ol] | effect of suppressing the increases in blood glucose levels was clearly observed | effect of suppressing the increases in blood glucose levels was clearly observed | 85.4 ± 11.2 | 91.8 ± 19.6 | 8.2 | – | – | – | – | –
2 | C=C(CCC(C)C1CCC2(C)C3CCC4C(C)(C)C(O)CCC45CC35CCC12C)C(C)C (stereo not drawn) [Test sample 2, 24-methylene-9,19-cyclolanostan-3-ol] | effect of suppressing the increases in blood glucose levels was clearly observed | effect of suppressing the increases in blood glucose levels was clearly observed | 82.0 ± 7.9 | 85.6 ± 9.3 | 14.5 | – | – | – | – | –
3 | CC[C@H](CC[C@@H](C)[C@H]1CC[C@H]2[C@@H]3CC=C4C[C@@H](O)CC[C@]4(C)[C@H]3CC[C@]12C)C(C)C [Control sample, β-sitosterol, reference compound] | rapid increase were observed | rapid increase were observed | – | – | – | – | – | – | – | –
4 | CCc1ccc(CCOc2ccc(CC3SC(=O)NC3=O)cc2)nc1 (stereo not drawn) [Control sample 1, pioglitazone hydrochloride, reference compound] | – | – | 92.1 ± 0.2 | – | – | about 0.8% | – | – | – | –
5 | 24-methylene-9,19-cyclolanostan-3-ol [Test sample 2] | – | – | – | – | – | – | 98.1 ± 22.3 | 81.6 ± 14.6 | about 1.9% | 18.4

— patent publication US7674784B2, “Drug and food or drink for improving hyperglycemia” (Morinaga Milk Industry Co., Ltd., priority 2004, dated 2010)
